Results: publication PMC8274595, “Mechanism through Which Retrocyclin Targets Flavivirus Multiplication” (Journal of Virology, 2021)
Where two headings read alike, the source gives them in different places. Where no end group is shown, it is not given here.

What was measured:
[1] = system: ZIKV; test: Time-of-addition assay, ZIKV (PRVABC 59 and MR766); assay type: cell-based, Zika virus (ZIKV)
[2] = system: JEV H319A variant
[3] = system: influenza virus hemagglutinin; settings: cited from earlier work
[4] = biological target: T1, WT DIII (Japanese encephalitis virus, UniProt P27395); test: Binding affinity, biolayer interferometry, WT DIII; set-up: species or system Japanese encephalitis virus (JEV); settings: Octet QK, DIII immobilized, RC-101 200, 100, 50 nM, 1:1 binding model
T1 construct: The WT DIII expression vector was constructed using pET-22b(+) and preserved in our laboratory; pET-22b(+) normally gives a C-terminal His6); made in house; host or cells: E. coli BL21(DE3), pET-22b(+)

[5] = system: ZIKV replicon; test: ZIKV replicon luciferase assay; assay type: cell-based, Zika virus (ZIKV); settings: BHK-21 cells, three independent experiments
[6] = system: ZIKV PRVABC 59; test: Plaque assay, ZIKV PRVABC 59 virus production; assay type: cell-based, Zika virus (ZIKV); settings: 100 μM, additional cell line U251 used, supernatant 47 h postinfection
[7] = system: MR766 strain; test: Time-of-addition assay, ZIKV MR766 posttreatment; assay type: cell-based, Zika virus (ZIKV); settings: Vero cells, RC-101 40 μM added 1 h postinfection for 71 h, MOI 0.1, plaque assay
[8] = system: JEV AT31; test: Viral titer reduction (plaque) assay, JEV in U251 cells; assay type: cell-based, Japanese encephalitis virus (JEV); settings: MOI 0.1, six independent experiments
[9] = system: JEV; assay type: cell-based, Japanese encephalitis virus (JEV); settings: 50 μM RC-101, coadministration, BHK-21 cells
[10] = system: JEV N154A variant; assay type: cell-based, Japanese encephalitis virus (JEV); settings: coadministration, BHK-21 cells, Western blot and plaque assay
[11] = system: JEV H144A variant; assay type: cell-based, Japanese encephalitis virus (JEV); settings: coadministration, BHK-21 cells, Western blot and plaque assay
[12] = system: herpes simplex virus 1/2 (HSV-1/2) glycoprotein; settings: cited from earlier work
[13] = biological target: T2, DE mutant DIII (Japanese encephalitis virus, UniProt P27395, N661A/S658A/S659A/T657A); test: Binding affinity, biolayer interferometry, DE mutant DIII; set-up: species or system Japanese encephalitis virus (JEV); settings: relative to WT DIII
T2 construct: DE loop mutant DIII (B), and bovine serum albumin (BSA) (C) were immobilized onto biosensors; pET-22b(+) normally gives a C-terminal His6); made in house

[14] = system: ZIKV MR766; test: Plaque assay, ZIKV MR766 virus production; assay type: cell-based, Zika virus (ZIKV); settings: additional cell line U251 used, supernatant 71 h postinfection
[15] = system: JEV AT31; test: Viral titer reduction (plaque) assay, JEV in BHK-21 cells; assay type: cell-based, Japanese encephalitis virus (JEV); settings: MOI 0.1, six independent experiments
[16] = system: JEV NS3; assay type: cell-based, Japanese encephalitis virus (JEV); settings: BHK-21 cells
[17] = system: JEV Q258A variant; assay type: cell-based, Japanese encephalitis virus (JEV); settings: coadministration, BHK-21 cells, Western blot and plaque assay
[18] = system: JEV T410A variant
[19] = system: Vero cells; settings: up to 100 μM, 72 h, CCK-8 assay
[20] = system: HIV gp120; settings: cited from earlier work
[21] = biological target: T3, ZIKV NS2B-NS3pro (Zika virus, UniProt A0A024B7W1); test: Proteolytic activity of NS2B-NS3 protease; assay type: biochemical
T3 construct: the NS2B fragments were amplified by PCR; made in house; host or cells: E. coli BL21(DE3), pET28a

[22] = system: JEV DE mutant
[23] = system: DENV NS2B-NS3 protease; settings: cited from earlier work
[24] = system: DENV-2; settings: cited from earlier work

CC[C@H](C)[C@@H]1NC(=O)CNC(=O)[C@H](CCCCN)NC(=O)CNC(=O)[C@@H]2CSSC[C@H](NC1=O)C(=O)N[C@@H](CCCNC(=N)N)C(=O)N[C@H]1CSSC[C@H](NC(=O)[C@H](CCCNC(=N)N)NC(=O)[C@@H]3CSSC[C@H](NC(=O)[C@H]([C@@H](C)CC)NC1=O)C(=O)NCC(=O)N[C@@H](CCCNC(=N)N)C(=O)NCC(=O)N[C@@H]([C@@H](C)CC)C(=O)N3)C(=O)N[C@@H]([C@@H](C)CC)C(=O)N2 [RC-101, retrocyclin-101]
approximate IC98 against ZIKV ([1]; IC98 from dose-response against ZIKV (Fig. 1)): ~50 µM | suppression of viral titers, pretreatment ([1]; Vero cells, RC-101 40 μM for 1 h before infection (-1 to 0 h), ZIKV MOI 0.1, plaque assay): no suppression of viral titers was observed | inhibitory effect, coadministration ([1]; Vero cells, RC-101 40 μM with ZIKV MOI 0.1, 0 to 1 h, plaque assay): significant inhibitory effects | suppression of viral titers, virucidal treatment ([1]; ZIKV (MOI 2.5) incubated with RC-101 40 μM at 37°C for 1 h, diluted 25-fold to infect Vero cells 1 h, plaque assay): no suppression of viral titers was observed | resistance of mutant virus to RC-101 [2]: resistance to RC-101 at the protein level and in the low-multiplication of infection (MOI) assay | binding affinity to influenza virus hemagglutinin [3]: high binding affinity | kinetic dissociation (Kd) [4]: 0.000118 s⁻¹ | initial translation of replicon RNA (luciferase activity) ([5]; 2 h postelectroporation): little effect | luciferase signal (replication) ([5]; 48 h postelectroporation): appreciable reduction | virus production (plaques) [6]: few plaques were found | inhibition of infection, posttreatment [7]: inhibited MR766 strain infection | inhibition of JEV infection (viral titer) [8]: robustly inhibited JEV infection | prM band (Western blot) ([9]; MOI 0.1, 24 h postinfection): hardly detectable | viral titers decrease ([9]; plaque assay): approximately 3 log units | inhibition of infection by mutant virus [10]: inhibited infections | inhibition of infection by mutant virus [11]: inhibited infections | binding affinity to HSV-1/2 glycoprotein [12]: high binding affinity | decrease of binding affinity, DE mutant versus WT DIII [13]: 1 order of magnitude | virus production reduction ([14]; 12.5 μM): approximately 1 log unit | virus production reduction ([14]; 100 μM): approximately 7 log units | inhibition of JEV infection (viral titer) [15]: robustly inhibited JEV infection | expression of JEV NS3 ([16]; JEV AT31 MOI 0.1, 1 h preinfection RC-101, lysates 23 h postinfection): inhibited in a dose-dependent manner | unprocessed polyprotein precursor (>180 kDa) expression ([16]; JEV AT31 MOI 0.1, RC-101 3.125 μM versus 0.78125 μM, 23 h postinfection): significantly higher | unprocessed polyprotein precursor (>180 kDa) presence ([16]; JEV AT31 MOI 0.1, RC-101 0.78125 and 3.125 μM, 23 h postinfection): present | unprocessed polyprotein precursor (>180 kDa) presence ([16]; JEV AT31 MOI 0.1, RC-101 12.5 and 50 μM, 23 h postinfection): decreased | sensitivity of mutant virus to RC-101 [17]: likely had increased sensitivity | resistance of mutant virus to RC-101 [18]: robust resistance to RC-101 in all assays | cytotoxicity (cell viability) [19]: marginal response even at 100 μM | binding affinity to HIV gp120 [20]: high binding affinity | IC50 [21]: 7.2 µM | resistance of mutant virus to RC-101 [22]: robust resistance to RC-101 in all assays

GICRCICGRGICRCICGR (also: bicyclic or more (positions not given here)) [RC-1]
inhibition of DENV NS2B-NS3 protease [23]: reported to inhibit DENV NS2B-NS3 protease | inhibition of DENV-2 replication [24]: inhibit DENV-2 replication
